Test results: patent publication US12122778B2, “Activating pyruvate kinase R” (Novo Nordisk Health Care AG, priority 2018, dated 2024)
Each block holds one compound with its values, some of them ahead of it.

Legend:
[1] = target: PKR(G332S) (Homo sapiens, UniProt P30613, G332S); assay: Luminescence Biochemical Assay (Kinase Glo Plus), PKR G332S mutant; conditions: with FBP; for activation at 1.54 µM: 1.54 μM compound, read-out: AC50 LUM KGP FBP % Fold@1.54 μM mean; for AC50: read-out: AC50 LUM KGP FBP AC50 μM gmean (column A); for Emax: read-out: AC50 LUM KGP FBP MAX % FOLD mean
PKR(G332S), sequence (P30613 whole entry G332S): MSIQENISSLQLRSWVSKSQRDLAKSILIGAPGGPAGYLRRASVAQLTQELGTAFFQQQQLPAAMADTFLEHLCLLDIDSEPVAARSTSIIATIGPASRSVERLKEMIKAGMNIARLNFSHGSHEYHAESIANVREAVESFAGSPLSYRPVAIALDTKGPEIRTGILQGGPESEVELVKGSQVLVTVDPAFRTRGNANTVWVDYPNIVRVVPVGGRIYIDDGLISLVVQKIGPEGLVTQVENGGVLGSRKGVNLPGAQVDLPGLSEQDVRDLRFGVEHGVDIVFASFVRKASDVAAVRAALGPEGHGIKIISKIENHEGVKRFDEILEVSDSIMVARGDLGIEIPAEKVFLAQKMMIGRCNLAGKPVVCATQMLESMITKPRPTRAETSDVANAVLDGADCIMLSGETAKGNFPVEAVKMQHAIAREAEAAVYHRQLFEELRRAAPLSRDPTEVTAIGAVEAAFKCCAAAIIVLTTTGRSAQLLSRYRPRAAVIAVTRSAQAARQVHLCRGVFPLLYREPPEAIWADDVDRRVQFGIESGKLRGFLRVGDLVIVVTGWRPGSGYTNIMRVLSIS

[2] = target: PKR(R510Q) (Homo sapiens, UniProt P30613, R510Q); assay: Luminescence Biochemical Assay (Kinase Glo Plus), PKR R510Q mutant; conditions: without FBP; for activation at 1.54 µM: 1.54 μM compound, read-out: AC50 LUM KGP woFBP % Fold@1.54 μM mean; for AC50: read-out: AC50 LUM KGP woFBP AC50 μM gmean; for Emax: read-out: AC50 LUM KGP woFBP MAX % FOLD mean
PKR(R510Q), sequence (P30613 whole entry R510Q): as the sequence (P30613 whole entry G332S) above, with S332G, R510Q counted along it

[3] = target: PKR(wt) (Homo sapiens, UniProt P30613); assay: Luminescence Biochemical Assay (Kinase Glo Plus), wild type PKR; conditions: without FBP; for activation at 1.54 µM: 1.54 μM compound, read-out: AC50 LUM KGP woFBP % Fold@1.54 μM mean; for AC50: read-out: AC50 LUM KGP woFBP AC50 μM gmean; for Emax: read-out: AC50 LUM KGP woFBP MAX % FOLD mean
PKR(wt), sequence (P30613 whole entry): as the sequence (P30613 whole entry G332S) above, with S332G counted along it

SMILES: O=C([C@H](O)c1ccccc1)N1CC2=C(C1)CN(S(=O)(=O)c1ccccn1)C2 [Example 9-2, (2R)-2-hydroxy-2-phenyl-1-[5-(pyridine-2-sulfonyl)-1H,2H,3H,4H,5H,6H-pyrrolo[3,4-c]pyrrol-2-yl]ethan-1-one]
activation at 1.54 µM [1]: 75 to 250%
AC50 [1]: 0.1 to 1 µM
Emax [1]: 75 to 250%
activation at 1.54 µM [2]: 75 to 250%
AC50 [2]: 0.1 to 1 µM
Emax [2]: 250 to 500%
activation at 1.54 µM [3]: 75 to 250%
Emax [3]: 75 to 250%

SMILES: Cc1cccc(Cl)c1S(=O)(=O)N1CC2=C(CN(C(=O)[C@@H](O)c3ccccc3)C2)C1 [Example 18-54, (2S)-1-[5-(2-chloro-6-methylbenzenesulfonyl)-1H,2H,3H,4H,5H,6H-pyrrolo[3,4-c]pyrrol-2-yl]-2-hydroxy-2-phenylethan-1-one]
activation at 1.54 µM [1]: 75 to 250%
AC50 [1]: 1 to 40 µM
Emax [1]: 75 to 250%
activation at 1.54 µM [2]: 75 to 250%
AC50 [2]: 1 to 40 µM
Emax [2]: 75 to 250%
activation at 1.54 µM [3]: 75 to 250%
AC50 [3]: 1 to 40 µM
Emax [3]: 75 to 250%

SMILES: O=C([C@H](O)c1ccccc1)N1CC2=C(C1)CN(S(=O)(=O)c1cc(F)cc(F)c1)C2 [Example 18-52, (2R)-1-[5-(3,5-difluorobenzenesulfonyl)-1H,2H,3H,4H,5H,6H-pyrrolo[3,4-c]pyrrol-2-yl]-2-hydroxy-2-phenylethan-1-one]
activation at 1.54 µM [1]: 75 to 250%
AC50 [1]: 1 to 40 µM
Emax [1]: 75 to 250%
activation at 1.54 µM [2]: 75 to 250%
AC50 [2]: 0.1 to 1 µM
Emax [2]: 75 to 250%
activation at 1.54 µM [3]: 75 to 250%
AC50 [3]: 0.1 to 1 µM
Emax [3]: 75 to 250%

SMILES: O=C(Cc1ncccn1)N1CC2=C(C1)CN(S(=O)(=O)c1ccc(OC(F)F)cc1)C2 [Example 18-28, 1-{5-[4-(Difluoromethoxy)benzenesulfonyl]-1H,2H,3H,4H,5H,6H-pyrrolo[3,4-c]pyrrol-2-yl}-2-(pyrimidin-2-yl)ethan-1-one]
activation at 1.54 µM [1]: 75 to 250%
AC50 [1]: 0.1 to 1 µM
Emax [1]: 75 to 250%
activation at 1.54 µM [2]: 250 to 50000%
AC50 [2]: 1 to 40 µM
Emax [2]: 250 to 500%
activation at 1.54 µM [3]: 250 to 50000%
AC50 [3]: 1 to 40 µM
Emax [3]: 250 to 500%

SMILES: O=C(Cc1cccnc1)N1CC2=C(C1)CN(S(=O)(=O)c1ccc(OC(F)F)cc1)C2 [Example 18-26, 1-{5-[4-(Difluoromethoxy)benzenesulfonyl]-1H,2H,3H,4H,5H,6H-pyrrolo[3,4-c]pyrrol-2-yl}-2-(pyridin-3-yl)ethan-1-one]
activation at 1.54 µM [1]: 75 to 250%
AC50 [1]: ≤ 0.1 µM
Emax [1]: 75 to 250%
activation at 1.54 µM [2]: 250 to 50000%
AC50 [2]: 0.1 to 1 µM
Emax [2]: 250 to 500%
activation at 1.54 µM [3]: 250 to 50000%
AC50 [3]: 0.1 to 1 µM
Emax [3]: 250 to 500%

SMILES: O=C([C@H](O)c1ccc(F)cc1)N1CC2=C(C1)CN(S(=O)(=O)c1cccnc1)C2 [Example 18-62, (2R)-2-(4-fluorophenyl)-2-hydroxy-1-[5-(pyridine-3-sulfonyl]-1H,2H,3H,4H,5H,6H-pyrrolo[3,4-c]pyrrol-2-yl]ethan-1-one]
activation at 1.54 µM [1]: 75 to 250%
AC50 [1]: 1 to 40 µM
Emax [1]: 75 to 250%
activation at 1.54 µM [2]: 75 to 250%
AC50 [2]: 1 to 40 µM
Emax [2]: 250 to 500%
activation at 1.54 µM [3]: 75 to 250%
AC50 [3]: 0.1 to 1 µM
Emax [3]: 75 to 250%

SMILES: Cc1ccc(CC(=O)N2CC3=C(C2)CN(S(=O)(=O)c2ccccn2)C3)cn1 [Example 18-61, 2-(6-Methylpyridin-3-yl)-1-[5-(pyridine-2-sulfonyl)-1H,2H,3H,4H,5H,6H-pyrrolo[3,4-c]pyrrol-2-yl]ethan-1-one]
activation at 1.54 µM [1]: 75 to 250%
AC50 [1]: 1 to 40 µM
Emax [1]: 75 to 250%
activation at 1.54 µM [2]: 75 to 250%
AC50 [2]: 1 to 40 µM
Emax [2]: 250 to 500%
activation at 1.54 µM [3]: 75 to 250%
AC50 [3]: 1 to 40 µM
Emax [3]: 250 to 500%

SMILES: CC(=O)Nc1cc(S(=O)(=O)N2CC3=C(CN(C(=O)[C@H](O)c4ccccc4)C3)C2)ccc1F [Example 14-1, (R)—N-(2-fluoro-5-((5-(2-hydroxy-2-phenylacetyl)-3,4,5,6-tetrahydropyrrolo[3,4-c]pyrrol-2(1H)-yl)sulfonyl)phenyl)acetamide]
activation at 1.54 µM [1]: 75 to 250%
AC50 [1]: 1 to 40 µM
Emax [1]: 75 to 250%
activation at 1.54 µM [2]: 75 to 250%
AC50 [2]: 1 to 40 µM
Emax [2]: 75 to 250%
activation at 1.54 µM [3]: 75 to 250%
AC50 [3]: 1 to 40 µM
Emax [3]: 75 to 250%

SMILES: O=C([C@@H](O)c1ccc2c(c1)CNCC2)N1CC2=C(C1)CN(S(=O)(=O)c1ccc(OC(F)F)cc1)C2 (single isomer, unassigned) [Example 11-1]
activation at 1.54 µM [1]: 75 to 250%
AC50 [1]: 1 to 40 µM
Emax [1]: 75 to 250%
activation at 1.54 µM [2]: 250 to 50000%
AC50 [2]: 0.1 to 1 µM
Emax [2]: 250 to 500%
activation at 1.54 µM [3]: 75 to 250%
AC50 [3]: 1 to 40 µM
Emax [3]: 75 to 250%

Second part, the compound after the results:

activation at 1.54 µM [1]: 75 to 250%
AC50 [1]: 0.1 to 1 µM
Emax [1]: 75 to 250%
activation at 1.54 µM [2]: 75 to 250%
AC50 [2]: 1 to 40 µM
Emax [2]: 250 to 500%
activation at 1.54 µM [3]: 75 to 250%
AC50 [3]: 1 to 40 µM
Emax [3]: 250 to 500%
SMILES: O=C(NCc1cccc(F)c1)N1CC2=C(C1)CN(S(=O)(=O)c1ccc3ncsc3c1)C2 [Example 21-36, 5-(1,3-Benzothiazole-6-sulfonyl)-N-[(3-fluorophenyl)methyl]-1H,2H,3H,4H,5H,6H-pyrrolo[3,4-c]pyrrole-2-carboxamide]

activation at 1.54 µM [1]: 75 to 250%
AC50 [1]: ≤ 0.1 µM
Emax [1]: 75 to 250%
activation at 1.54 µM [2]: 250 to 50000%
AC50 [2]: ≤ 0.1 µM
Emax [2]: 250 to 500%
activation at 1.54 µM [3]: 250 to 50000%
AC50 [3]: ≤ 0.1 µM
Emax [3]: 250 to 500%
SMILES: O=C(NCc1ccccc1F)N1CC2=C(C1)CN(S(=O)(=O)c1ccc3ncsc3c1)C2 [Example 21-20, 5-(1,3-Benzothiazole-6-sulfonyl)-N-[(2-fluorophenyl)methyl]-1H,2H,3H,4H,5H,6H-pyrrolo[3,4-c]pyrrole-2-carboxamide]

activation at 1.54 µM [1]: 75 to 250%
AC50 [1]: 0.1 to 1 µM
Emax [1]: 75 to 250%
activation at 1.54 µM [2]: 75 to 250%
AC50 [2]: 1 to 40 µM
Emax [2]: 250 to 500%
activation at 1.54 µM [3]: 75 to 250%
AC50 [3]: 1 to 40 µM
Emax [3]: 250 to 500%
SMILES: O=C(NCc1cccnc1)N1CC2=C(C1)CN(S(=O)(=O)c1ccc3ncsc3c1)C2 [Example 20-56, 5-(1,3-Benzothiazole-6-sulfonyl)-N-(pyridin-3-ylmethyl)-1H,2H,3H,4H,5H,6H-pyrrolo[3,4-c]pyrrole-2-carboxamide]

activation at 1.54 µM [1]: 75 to 250%
AC50 [1]: 0.1 to 1 µM
Emax [1]: 75 to 250%
activation at 1.54 µM [2]: 250 to 50000%
AC50 [2]: 0.1 to 1 µM
Emax [2]: 250 to 500%
activation at 1.54 µM [3]: 250 to 50000%
AC50 [3]: 0.1 to 1 µM
Emax [3]: 250 to 500%
SMILES: Cc1cc(COC(=O)N2CC3=C(C2)CN(S(=O)(=O)c2ccc(OC(F)F)cc2)C3)no1 [Example 22-5, (5-Methyl-1,2-oxazol-3-yl)methyl-5-[4-(difluoromethoxy)benzenesulfonyl]-1H,2H,3H,4H,5H,6H-pyrrolo[3,4-c]pyrrole-2-carboxylate]

activation at 1.54 µM [1]: 75 to 250%
AC50 [1]: ≤ 0.1 µM
Emax [1]: 75 to 250%
activation at 1.54 µM [2]: 250 to 50000%
AC50 [2]: 0.1 to 1 µM
Emax [2]: 250 to 500%
activation at 1.54 µM [3]: 250 to 50000%
AC50 [3]: 0.1 to 1 µM
Emax [3]: 250 to 500%
SMILES: COc1ccccc1CNC(=O)N1CC2=C(C1)CN(S(=O)(=O)c1ccc(OC(F)F)cc1)C2 [Example 21-12, 5-[4-(Difluoromethoxy)benzenesulfonyl]-N-[(2-methoxyphenyl)methyl]-1H,2H,3H,4H,5H,6H-pyrrolo[3,4-c]pyrrole-2-carboxamide]
